# Laboratory results: paper PMC8664950, “Potent but transient immunosuppression of T-cells is a general feature of CD71^+ erythroid cells” (Communications Biology, 2021)
# Experiments:
# ARG2 = molecular target: T1, ARG2 (Homo sapiens, UniProt P78540); test: colorimetric urea-production arginase assay with recombinant enzyme; assay type: biochemical
# T1 construct: recombinant human ARG2 (E. coli)
# T1 sequence (P78540 23-354): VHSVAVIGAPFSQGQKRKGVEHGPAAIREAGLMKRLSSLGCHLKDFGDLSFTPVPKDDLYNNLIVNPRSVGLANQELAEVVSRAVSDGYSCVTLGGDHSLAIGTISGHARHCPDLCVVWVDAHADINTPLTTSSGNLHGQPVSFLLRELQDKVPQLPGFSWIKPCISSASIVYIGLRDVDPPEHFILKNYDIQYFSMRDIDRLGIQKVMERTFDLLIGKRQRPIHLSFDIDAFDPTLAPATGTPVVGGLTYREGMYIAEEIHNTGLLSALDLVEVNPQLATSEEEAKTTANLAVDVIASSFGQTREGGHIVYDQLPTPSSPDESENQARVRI
# ARG1 = molecular target: T2, ARG1 (Homo sapiens, UniProt P05089); test: as above; assay type: biochemical
# T2 construct: recombinant human ARG1 (E. coli)
# T2 sequence (P05089 1-322): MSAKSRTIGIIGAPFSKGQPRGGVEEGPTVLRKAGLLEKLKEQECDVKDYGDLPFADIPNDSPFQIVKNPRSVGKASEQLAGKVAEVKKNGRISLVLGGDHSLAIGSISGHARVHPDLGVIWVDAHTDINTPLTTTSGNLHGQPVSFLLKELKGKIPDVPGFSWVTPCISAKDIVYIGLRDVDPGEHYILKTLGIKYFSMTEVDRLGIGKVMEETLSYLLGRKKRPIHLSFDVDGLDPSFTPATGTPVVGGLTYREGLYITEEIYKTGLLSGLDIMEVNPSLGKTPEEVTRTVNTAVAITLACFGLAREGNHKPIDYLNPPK
structure (smiles),measurement,setting,value
"NNc1ccccc1 [PHZ, phenylhydrazine]",IC50,ARG2,61 µM
same,IC50,ARG1,1020 µM
